Among the data in US6706709B2, “Indolinone derivatives as protein kinase/phosphatase inhibitors” (Sugen, Inc., priority 2000, dated 2004) are IC50 values, retold here.

Each structure is given as a SMILES string.

What is called IC50 is the concentration that inhibits the measured activity by half. Read a low IC50 as greater potency.

One experiment concerns the target GST-Flk1 (UniProt P35918). The experiment in a line: GST-FLK-1 bioassay (bio flkGST). Format: biochemical. How it is done:
This assay analyzes the tyrosine kinase activity of GST-Flk1 on poly glu tyr peptides.
2. poly glu tyr 4:1, lyophilizate (Sigma Catalog # P0275). Prepare 1 mg/mL poly glu tyr in sterile PBS and store in 1 ml aliquots at −20° C.
3. Preparation of poly glu tyr (pEY) coated assay plates: Coat 2 μg/well of poly glu tyr (pEY) in 100 μL PBS at room temperature for 2 hours or at +4° C. overnight. Cover plates well to prevent evaporation.
4. PBS Buffer: To make 1 liter of a 1× working solution, mix […], 1.15 g NA2HPO4, 0.2 g KCl and 8 g NaCl in approx. 900 mL dH2O. When all reagents have dissolved, adjust the pH to 7.2 with HCl. Bring total volume to 1L with dH2O.
5. PBS-Tw Buffer: To 1L of PBS Buffer, add […] Tween-20. Stir until dissolved.
6. TBB-Blocking Buffer: To make one liter of a 1× working solution, mix 1.21 g TRIS, 8.77 g NaCl, 1 mL TWEEN-20 in approximately 900 mL dH2O. Adjust pH to 7.2 with HCl. Add 10 g BSA, stir to dissolve. Bring total volume to 1 L with dH2O. Filter to remove particulate matter.
7. 1% BSA in PBS: To make a 1× working solution, add 10 g BSA to approx. 990 mL PBS buffer, stir to dissolve. Adjust total volume to 1 L with PBS buffer, filter to remove particulate matter.
9. GST-Flk1cd purified from sf9 recombinant baculovirus transformation.
13. Kinase Dilution Buffer (KDB): Mix 10 mL Hepes (pH 7.5), 1 mL of 5 M NaCl, 40 μL of 100 mM NaVO4 and 0.4 mL of 5% BSA in dH2O with 88.56 mL of dH2O.
14. NUNC-96-well V bottom polypropylene plates Applied Scientific Catalog # AS-72092
15. EDTA: Mix 14.12 g ethylenediaminetetraacetic acid (EDTA) to approx. 70 mL dH2O. Add 10N NaOH until EDTA dissolves. Adjust pH to 8.0. Adjust total volume to 100 mL with dH2O.
16. 1° Antibody Dilution Buffer: Mix 10 mL of 5% BSA in PBS buffer with 89.5 mL TBSTw.
17. Anti-phosphotyrosine monoclonal conjugated to horseradish peroxidase (PY99 HRP, Santa Cruz Biotech).
18. 2,2′-Azino-bis(3-ethylbenzthiazoline-6-sulfonic acid (ABTS, Moss, Cat. No. ABST).
1. Coat Corning 96 well ELISA plates with 2 μg of polyEY peptide in sterile PBS as described in step 3 of Materials and Reagents.
2. Remove unbound liquid from wells by inverting plate. Wash once with TBSTw. Pat the plate on a paper towel to remove excess liquid.
3. Add 100 μL of 1% BSA in PBS to each well. Incubate, with shaking, for 1 hr. at room temperature.
5. Soak wells with 50 mM Hepes pH7.5 (150 μL/well).
6. Dilute test compound with dH2O/4% DMSO to 4 times the desired final assay concentration in 96-well polypropylene plates.
7. Add 25 μL diluted test compound to ELISA plate.
8. Add 25 μL of 40 mM MnCl2 with 4×ATP (2 μM) to all wells.
9. Add 25 μL 0.5 M EDTA to negative control wells.
10. Dilute GST-Flk1 0.005 μg (5 ng)/well in KDB. For 50 ml KDB add 100 μL of 0.050 mg/mL GST-Flk1 enzyme.
11. Add 50 μL of diluted enzyme to each well.
12. Incubate, with shaking, for 15 minutes at room temperature.
13. Stop reaction by adding 50 μL of 250 mM EDTA (pH 8.0).
14. Wash 3× with TBSTw and pat plate on paper towel to remove excess liquid.
15. Add 100 μL per well anti-phosphotyrosine HRP conjugate, 1:5,000 dilution in antibody dilution buffer. Incubate, with shaking for 90 min. at room temperature.
16. Wash as described above in step 14.
17. Add 100 μL of room temperature ABTS solution to each well.
18. Incubate, with shaking, for 10 to 15 minutes. Remove any bubbles.
19. Stop reaction by adding 20 μL of 10% SDS.
20. Read assay on Dynatech MR7000 ELISA reader: test filter at 410 nM; reference filter at 630 nM.

The target in another experiment is T1, EGF Receptor (Homo sapiens, UniProt P00533).
T1 construct: expressed in transfected cells; host or cells: NIH 3T3/C7 (mouse fibroblasts engineered to express human EGF-R)
T1 sequence (P00533 25-1210): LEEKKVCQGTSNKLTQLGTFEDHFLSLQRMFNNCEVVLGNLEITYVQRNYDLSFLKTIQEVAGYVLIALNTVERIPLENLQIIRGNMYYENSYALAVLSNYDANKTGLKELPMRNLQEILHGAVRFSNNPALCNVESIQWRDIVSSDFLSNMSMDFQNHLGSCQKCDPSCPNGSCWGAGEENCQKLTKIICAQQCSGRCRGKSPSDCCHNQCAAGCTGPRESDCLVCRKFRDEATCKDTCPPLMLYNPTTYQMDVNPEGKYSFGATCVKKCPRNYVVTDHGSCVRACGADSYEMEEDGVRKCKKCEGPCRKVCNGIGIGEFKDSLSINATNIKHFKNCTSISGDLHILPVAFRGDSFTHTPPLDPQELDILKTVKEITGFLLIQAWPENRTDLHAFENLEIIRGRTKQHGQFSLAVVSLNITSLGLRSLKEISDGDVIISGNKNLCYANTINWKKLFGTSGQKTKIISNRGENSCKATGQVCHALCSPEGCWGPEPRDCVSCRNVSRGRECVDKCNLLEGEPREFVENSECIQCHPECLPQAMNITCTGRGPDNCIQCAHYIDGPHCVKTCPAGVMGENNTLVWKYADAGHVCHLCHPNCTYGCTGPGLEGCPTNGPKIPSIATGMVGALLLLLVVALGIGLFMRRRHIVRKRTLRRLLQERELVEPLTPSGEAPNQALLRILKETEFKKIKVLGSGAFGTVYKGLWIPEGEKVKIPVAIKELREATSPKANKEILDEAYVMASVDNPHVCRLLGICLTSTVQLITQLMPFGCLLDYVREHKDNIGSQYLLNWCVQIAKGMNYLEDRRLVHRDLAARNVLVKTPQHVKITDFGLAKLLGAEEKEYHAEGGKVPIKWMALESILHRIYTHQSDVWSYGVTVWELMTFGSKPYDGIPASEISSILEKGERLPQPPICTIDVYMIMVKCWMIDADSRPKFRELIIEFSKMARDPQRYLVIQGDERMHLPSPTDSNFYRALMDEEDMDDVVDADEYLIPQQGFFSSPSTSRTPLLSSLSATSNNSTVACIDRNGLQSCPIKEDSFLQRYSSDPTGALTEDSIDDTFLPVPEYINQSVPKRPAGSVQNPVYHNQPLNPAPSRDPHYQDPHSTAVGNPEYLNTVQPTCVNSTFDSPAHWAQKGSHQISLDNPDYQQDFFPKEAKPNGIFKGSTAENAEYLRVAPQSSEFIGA
The experiment in a line: bio EGF (EGF Receptor ELISA). Format: biochemical. As to the method:
EGF Receptor kinase activity in cells genetically engineered to express human EGF-R was measured as described below:
The following materials and reagents were used:
b. 05-101 (UBI) (a monoclonal antibody recognizing an EGFR extracellular domain).
c. Anti-phosphotyrosine antibody (anti-Ptyr) (polyclonal).
d. Detection antibody: Goat anti-rabbit lgG horse radish peroxidase conjugate, TAGO, Inc., Burlingame, Calif.
Keep solution in dark at 4° C. until used.
The following protocol was used:
1. […] Coated plates are good for up to 10 days when stored at 4° C.
2. On day of use, remove coating buffer and replace with blocking buffer (5% Carnation Instant Non-Fat Dry Milk in PBS). Incubate the plate, shaking, at room temperature (about 23° C. to 25° C.) for 30 minutes. Just prior to use, remove blocking buffer and wash plate 4 times with TBST buffer.
2. Choose dishes having 80-90% confluence for the experiment. Trypsinize cells and stop reaction by adding 10% CS DMEM medium. Suspend cells in DMEM medium (10% CS DMEM medium) and centrifuge once at 1000 rpm at room temperature for 5 minutes.
3. Resuspend cells in seeding medium (DMEM, 0.5% bovine serum), and count the cells using trypan blue. Viability above 90% is acceptable. Seed cells in DMEM medium (0.5% bovine serum) at a density of 10,000 cells per well, 100 μL per well, in a 96 well microtiter plate. Incubate seeded cells in 5% CO2 at 37° C. for about 40 hours.
1. Check seeded cells for contamination using an inverted microscope. Dilute drug stock (10 mg/ml in DMSO) 1:10 in DMEM medium, then transfer 5 μL to a test well for a final drug dilution of 1:200 and a final DMSO concentration of 1%. Control wells receive DMSO alone. Incubate in 5% CO2 at 37° C. for one hour.
2. Prepare EGF ligand: dilute stock EGF in DMEM so that upon transfer of 10 μL dilute EGF (1:12 dilution), 25 nM final concentration is attained.
3. Prepare fresh 10 ml HNTG* sufficient for 100 μL per well wherein HNTG* comprises: HNTG stock (2.0 mL), milli-Q H2O (7.3 mL), EDTA, 100 mM, pH 7.0 (0.5 mL), Na3VO4 0.5 M (0.1 mL) and Na4(P2O7), 0.2 M (0.1 mL).
5. After two hours incubation with drug, add prepared EGF ligand to cells, 10 μL per well, to yield a final concentration of 25 nM. Control wells receive DMEM alone. Incubate, shaking, at room temperature, for 5 minutes.
6. Remove drug, EGF, and DMEM. Wash cells twice with PBS. Transfer HNTG* to cells, 100 μL per well. Place on ice for 5 minutes. Meanwhile, remove blocking buffer from other ELISA plate and wash with TBST as described above.
7. With a pipette tip securely fitted to a micropipettor, scrape cells from plate and homogenize cell material by repeatedly aspirating and dispensing the HNTG* lysis buffer. Transfer lysate to a coated, blocked, and washed ELISA plate. Incubate shaking at room temperature for one hour.
8. Remove lysate and wash 4 times with TBST. Transfer freshly diluted anti-Ptyr antibody to ELISA plate at 100 μL per well. Incubate shaking at room temperature for 30 minutes in the presence of the anti-Ptyr antiserum (1:3000 dilution in TBST).
9. Remove the anti-Ptyr antibody and wash 4 times with TBST. Transfer the freshly diluted TAGO 30 anti-rabbit IgG antibody to the ELISA plate at 100 μL per well. Incubate shaking at room temperature for 30 minutes (anti-rabbit IgG antibody: 1:3000 dilution in TBST).
10. Remove detection antibody and wash 4 times with TBST. Transfer freshly prepared ABTS/H2O2 solution to ELISA plate, 100 μL per well. Incubate at room temperature for 20 minutes. ABTS/H2O2 solution: 1.2 μL 30% H2O2in 10 mL ABTS stock.
11. Stop reaction by adding 50 μL 5N H2SO4 (optional), and determine O.D. at 410 nm.
12. The maximal phosphotyrosine signal is determined by subtracting the value of the negative controls from the positive controls. The percent inhibition of phosphotyrosine content for extract-containing wells is then calculated, after subtraction of the negative controls.
For orientation: In an ELISA, binding on a coated surface is turned into a signal by an enzyme label.

For `O=C1Nc2ccc(C(=O)O)cc2C1=Cc1cc2cc(OCCN3CCCC3)ccc2[nH]1` [IN-022, 2-oxo-3-[5-(2-pyrrolidin-1-yl-ethoxy)-1H-indol-2-ylmethylene]-2,3-dihydro-1H-indole-5-carboxylic acid], the IC50 on GST-Flk1 is 140 nM; against EGF Receptor, greater than 20000 nM.
As for `CCN(CC)CCCc1ccc2[nH]c(C=C3C(=O)Nc4cc(-c5ccccc5)ccc43)cc2c1` [IN-003, 3-[5-(3-diethylamino-propyl)-1H-indol-2-ylmethylene]-6-phenyl-1,3-dihydro-indol-2-one], the IC50 against GST-Flk1 was 1560 nM; on EGF Receptor, 61300 nM.
For `CN(C)CCOc1ccc2[nH]c(C=C3C(=O)Nc4ccc(-c5ccccc5)cc43)cc2c1` [IN-005, 3-[5-(2-dimethylamino-ethoxy)-1H-indol-2-ylmethylene]-5-phenyl-1,3-dihydro-indol-2-one], in that order: 310 nM and 16300 nM.
On to `O=C1Nc2ccc(S(=O)(=O)N3CCc4cc(Br)ccc43)cc2C1=Cc1cc2cc(OCCN3CCCC3)ccc2[nH]1` [IN-052, 5-(5-bromo-2,3-dihydro-indole-1-sulfonyl)-3-[5-(2-pyrrolidin-1-yl-ethoxy)-1H-indol-2-ylmethylene]-1,3-dihydro-indol-2-one], for which the IC50 on GST-Flk1 was found to be 1020 nM; against EGF Receptor, 1160 nM.
Regarding `O=C1Nc2cc(-c3cccnc3)ccc2C1=Cc1cc2cc(OCCN3CCCC3)ccc2[nH]1` [IN-025, 6-pyridin-3-yl-3-[5-(2-pyrrolidin-1-yl-ethoxy)-1H-indol-2-ylmethylene]-1,3-dihydro-indol-2-one], the half-inhibitory concentration (IC50) against GST-Flk1 was 140 nM; against EGF Receptor, greater than 20000 nM.
`O=C1Nc2ccc(S(=O)(=O)N3CCc4ccccc43)cc2C1=Cc1cc2cc(OCCN3CCCC3)ccc2[nH]1` [IN-046, 5-(2,3-dihydro-indole-1-sulfonyl)-3-[5-(2-pyrrolidin-1-yl-ethoxy)-1H-indol-2-ylmethylene]-1,3-dihydro-indol-2-one]: the half-inhibitory concentration (IC50) against GST-Flk1 was 1050 nM; against EGF Receptor, 1230 nM.
In the case of `O=C1Nc2ccc(S(=O)(=O)Nc3cccc(Cl)c3)cc2C1=Cc1cc2cc(OCCN3CCOCC3)ccc2[nH]1` [IN-059, 3-[5-(2-morpholin-4-yl-ethoxy)-1H-indol-2-ylmethylene]-2-oxo-2,3-dihydro-1H-indole-5-sulfonic acid (3-chloro-phenyl)-amide], the IC50 on GST-Flk1 was 630 nM; on EGF Receptor, greater than 20000 nM.
In the case of `CN(C)S(=O)(=O)c1ccc2c(c1)C(=Cc1ccc3[nH]ccc3c1)C(=O)N2` [IN-074, 3-(1H-indol-5-ylmethylene)-2-oxo-2,3-dihydro-1H-indole-5-sulfonic acid dimethylamide], the IC50 is 1580 nM against GST-Flk1 and greater than 100000 nM against EGF Receptor.
For `O=C1Nc2ccc(C(=O)O)cc2C1=Cc1cc2cc(OCCN3CCOCC3)ccc2[nH]1` [IN-030, 3-[5-(2-morpholin-4-yl-ethoxy)-1H-indol-2-ylmethylene]-2-oxo-2,3-dihydro-1H-indole-5-carboxylic acid], in that order: less than 9 nM and greater than 20000 nM.
For `CCN(CC)CCOc1ccc2[nH]c(C=C3C(=O)Nc4ccc(-c5ccccc5)cc43)cc2c1` [IN-019, 3-[5-(2-diethylamino-ethoxy)-1H-indol-2-ylmethylene]-5-phenyl-1,3-dihydro-indol-2-one], in that order: 160 nM and 9550 nM.
For `CN(C)CCOc1ccc2[nH]c(C=C3C(=O)Nc4cc(-c5ccccc5)ccc43)cc2c1` [IN-012, 3-[5-(2-dimethylamino-ethoxy)-1H-indol-2-ylmethylene]-6-phenyl-1,3-dihydro-indol-2-one], in that order: 1950 nM and greater than 100000 nM.
Take `O=C1Nc2ccc(S(=O)(=O)N3CCCc4ccccc43)cc2C1=Cc1cc2cc(OCCN3CCOCC3)ccc2[nH]1` [IN-062, 5-(3,4-dihydro-2H-quinoline-1-sulfonyl)-3-[5-(2-morpholin-4-yl-ethoxy)-1H-indol-2-ylmethylene]-1,3-dihydro-indol-2-one]: the IC50 on GST-Flk1 is 15400 nM; at EGF Receptor, greater than 20000 nM.
